Numbered stars: 1 amine (or outer) side, 2 acyl side, 3 side chain; on linkers, the order of the positions; unused ones are H or OH. Bridge positions count the residues as written; N and C are the ends. Square brackets hold non-standard residues; d marks the D form. Peptide text beside a SMILES is read from it. * marks the point of attachment. hPhe(3-Cl-4-CF3) = N[C@@H](CCc1ccc(C(F)(F)F)c(Cl)c1)C(=O)O; NMePhe(4-CF3) = CN[C@@H](Cc1ccc(C(F)(F)F)cc1)C(=O)O; hPhe(4-CF3) = N[C@@H](CCc1ccc(C(F)(F)F)cc1)C(=O)O; NEtPhe(4-Me) = CCN[C@@H](Cc1ccc(C)cc1)C(=O)O; NMePhe(4-Cl) = CN[C@@H](Cc1ccc(Cl)cc1)C(=O)O; NMePhe(4-Me) = CN[C@@H](Cc1ccc(C)cc1)C(=O)O; NMeNle(6-CHF2) = CN[C@@H](CCCCC(F)F)C(=O)O; NMedβ3hAla = C[C@H](CC(=O)[*:2])N(C)[*:1]; X77 = O=C(CN(CCN1CCC(F)(F)CC1)[*:1])[*:2]; Phe(3-I) = N[C@@H](Cc1cccc(I)c1)C(=O)O; Ala(cPent) = N[C@@H](CC1CCCC1)C(=O)O; Phe(2-F) = N[C@@H](Cc1ccccc1F)C(=O)O; NMeCha = CN[C@@H](CC1CCCCC1)C(=O)O; Hyp = O=C(O)[C@@H]1C[C@@H](O)CN1; NMeI = CC[C@H](C)[C@H](NC)C(=O)O; NMeD = CN[C@@H](CC(=O)O)C(=O)O; NMeL = CN[C@@H](CC(C)C)C(=O)O; NMeV = CN[C@H](C(=O)O)C(C)C; d(β3hA) = C[C@@H](N)CC(=O)O; NMeS = CN[C@@H](CO)C(=O)O; NMeA = CN[C@@H](C)C(=O)O; NMeAib = CNC(C)(C)C(=O)O; Piperidide = C1CCN(*)CC1; Ac5c = NC1(C(=O)O)CCCC1; Aze = O=C(O)[C@@H]1CCN1; Ac4c = NC1(C(=O)O)CCC1; Aib = CC(C)(N)C(=O)O; Sar = CNCC(=O)O
tested on: Human pancreatic cancer cell line AsPC-1 (G12D mutation Kras); test: AsPC-1 cell growth inhibition (AsPC-1 CGI); format: cell-based; settings: read-out: AsPC-1 cell growth inhibition, 50% growth inhibitory concentration (IC50 value); 96 hours, CellTiter-Glo, values classified in ranges
Description: Test compounds were serially dilated with dimethyl sulfoxide, and 200 nL was then dispensed to a U-bottom 96-well plate using Labcyte Echo. […] The cell suspension was dispensed to a. plate containing a test compound at 100 μL per well and incubated at 37° C. in a 5% carbon dioxide gas incubator. 96 hours later, 80 μL of CellTiter-Glo (Promega) was added to each well and fluorescence was measured.

SMILES	IC50 [nM]
CCO[C@@H]1C[C@H]2C(=O)NC3(CCC3)C(=O)N(C)[C@@H]([C@@H](C)CC)C(=O)N(C)[C@H](C)CC(=O)N(C)[C@@H](CC(C)C)C(=O)N[C@@H]([C@@H](C)CC)C(=O)N(C)[C@@H](C)C(=O)N3CC[C@H]3C(=O)N(CC)[C@@H](Cc3ccc(C)cc3)C(=O)N(C)CC(=O)N[C@@H](CCc3ccc(C(F)(F)F)c(Cl)c3)C(=O)N2C1 [Compound 626] (cyclo([Ac4c][NMeI][NMedβ3hAla][NMeL]I[NMeA][Aze][NEtPhe(4-Me)][Sar][hPhe(3-Cl-4-CF3)][Hyp](Et)))	≤ 20
CC(C)C[C@H]1C(=O)N[C@@H](CC2CCCC2)C(=O)N(C)CC(=O)N(C)CC(=O)N(C)[C@@H](CC2CCCCC2)C(=O)N(C)CC(=O)N[C@@H](CCc2ccc(C(F)(F)F)c(Cl)c2)C(=O)N2CCC[C@H]2C(=O)NC2(CCCC2)C(=O)N(C)[C@@H](C(C)C)C(=O)N(C)[C@H](C(=O)N2CCCCC2)CC(=O)N1C [Compound 627] ([NMeL][Ala(cPent)][Sar][Sar][NMeCha][Sar][hPhe(3-Cl-4-CF3)]P[Ac5c][NMeV][NMeD]-Piperidide; lactam N-11)	> 500
CC[C@H](C)[C@@H]1NC(=O)[C@H](CC(C)C)N(C)C(=O)C[C@@H](C(=O)N2CCCCC2)N(C)C(=O)[C@H]([C@@H](C)CC)N(C)C(=O)C2(CCCC2)NC(=O)[C@@H]2CCCN2C(=O)[C@H](CCc2ccc(C(F)(F)F)c(Cl)c2)NC(=O)CN(C)C(=O)[C@H](Cc2ccc(C(F)(F)F)cc2)N(C)C(=O)[C@@H]2CCN2C(=O)[C@H](C)N(C)C1=O [Compound 630] ([NMeL]I[NMeA][Aze][NMePhe(4-CF3)][Sar][hPhe(3-Cl-4-CF3)]P[Ac5c][NMeI][NMeD]-Piperidide; lactam N-11)	≤ 20
CC[C@H](C)[C@@H]1NC(=O)[C@H](CC(C)C)N(C)C(=O)C[C@@H](C)NC(=O)[C@H](C(C)C)N(C)C(=O)C2(CCCC2)NC(=O)[C@@H]2CCCN2C(=O)[C@H](CCc2ccc(C(F)(F)F)c(Cl)c2)NC(=O)CN(C)C(=O)[C@H](CC2CCCCC2)N(C)C(=O)CN(C)C(=O)CN(CCN2CCC(F)(F)CC2)C1=O [Compound 635] (cyclo([Ac5c][NMeV][d(β3hA)][NMeL]I[X77][Sar][NMeCha][Sar][hPhe(3-Cl-4-CF3)]P))	> 500
CC[C@H](C)[C@@H]1NC(=O)[C@H](COC)N(C)C(=O)C[C@@H](C(=O)N2CCCCC2)N(C)C(=O)[C@H](C(C)C)N(C)C(=O)C2(CCCC2)NC(=O)[C@@H]2CCCN2C(=O)[C@H](CCc2ccc(C(F)(F)F)c(Cl)c2)NC(=O)CN(C)C(=O)[C@H](CC2CCCCC2)N(C)C(=O)[C@@H]2CCN2C(=O)[C@H](C)N(C)C1=O [Compound 636] ([NMeS](Me)I[NMeA][Aze][NMeCha][Sar][hPhe(3-Cl-4-CF3)]P[Ac5c][NMeV][NMeD]-Piperidide; lactam N-11)	> 500
CC[C@H](C)[C@@H]1NC(=O)[C@H](CC(C)C)N(C)C(=O)C[C@@H](C(=O)N2CCCCC2)N(C)C(=O)[C@H](CC(C)C)NC(=O)C(C)(C)N(C)C(=O)[C@H](Cc2ccccc2F)NC(=O)[C@H](Cc2cccc(I)c2)NC(=O)CN(C)C(=O)[C@H](Cc2ccc(C)cc2)N(C)C(=O)[C@@H]2CCN2C(=O)CN(C)C1=O [Compound 638] ([NMeL]I[Sar][Aze][NMePhe(4-Me)][Sar][Phe(3-I)][Phe(2-F)][NMeAib]L[NMeD]-Piperidide; lactam N-11)	> 500
CC[C@H](C)[C@@H]1NC(=O)[C@H](CC(C)C)N(C)C(=O)C[C@@H](C)NC(=O)[C@H](C(C)C)N(C)C(=O)C(C)(C)NC(=O)[C@@H]2CCCN2C(=O)[C@H](CCc2ccc(C(F)(F)F)c(Cl)c2)NC(=O)CN(C)C(=O)[C@H](CC2CCCCC2)N(C)C(=O)CN(C)C(=O)CN(C)C1=O [Compound 641] (cyclo([Aib][NMeV][d(β3hA)][NMeL]I[Sar][Sar][NMeCha][Sar][hPhe(3-Cl-4-CF3)]P))	> 500
CC[C@H](C)[C@@H]1NC(=O)[C@H](C(C)C)N(C)C(=O)C[C@@H](C)NC(=O)[C@H](CC(C)C)N(C)C(=O)C2(CCCC2)NC(=O)[C@H](CC(C)C)N(C)C(=O)[C@H](CCc2ccc(C(F)(F)F)cc2)NC(=O)CN(C)C(=O)[C@H](Cc2ccc(Cl)cc2)N(C)C(=O)[C@@H]2CCN2C(=O)CN(C)C1=O [Compound 645] (cyclo([Ac5c][NMeL][d(β3hA)][NMeV]I[Sar][Aze][NMePhe(4-Cl)][Sar][hPhe(4-CF3)][NMeL]))	> 500
CC[C@H](C)[C@@H]1NC(=O)[C@H](CC(C)C)N(C)C(=O)C[C@@H](C(=O)N2CCCCC2)N(C)C(=O)[C@H](CCCCC(F)F)N(C)C(=O)C2(CCCC2)NC(=O)[C@@H]2CCCN2C(=O)[C@H](CCc2ccc(C(F)(F)F)c(Cl)c2)NC(=O)CN(C)C(=O)[C@H](CC2CCCCC2)N(C)C(=O)CN(C)C(=O)CN(C)C1=O [Compound 653] ([NMeL]I[Sar][Sar][NMeCha][Sar][hPhe(3-Cl-4-CF3)]P[Ac5c][NMeNle(6-CHF2)][NMeD]-Piperidide; lactam N-11)	> 500

— patent US20240148821A1, “PHARMACEUTICAL USE OF CYCLIC PEPTIDE COMPOUND” (CHUGAI SEIYAKU KABUSHIKI KAISHA, priority 2021, published 2024)
